Results from ChEMBL document CHEMBL2440076, “New triarylpyrazoles as broad-spectrum anticancer agents: design, synthesis, and biological evaluation” (Eur J Med Chem, 2013).

What was measured:
[1] = test system: Malme-3M; test: Growth inhibition of human MALME-3M cells assessed as cell growth at 10 uM after 48 hrs by sulforhodamine B assay; type: functional; conditions: read-out: Activity
[2] = test system: UO-31; test: Growth inhibition of human UO31 cells assessed as cell growth at 10 uM after 48 hrs by sulforhodamine B assay; type: functional; conditions: UO-31, 48 h, read-out: Activity
[3] = test system: MDA-MB-468; test: Growth inhibition of human MDA-MB-468 cells after 48 hrs by sulforhodamine B assay; type: functional, cell-based; conditions: MDA-MB-468, 48 h
[4] = test system: NCI-H460; test: Growth inhibition of human NCI-H460 cells assessed as cell growth at 10 uM after 48 hrs by sulforhodamine B assay; type: functional; conditions: NCI-H460, 48 h, read-out: Activity
[5] = test system: RXF 393; test: Growth inhibition of human RXF393 cells assessed as cell growth at 10 uM after 48 hrs by sulforhodamine B assay; type: functional; conditions: RXF 393, 48 h, read-out: Activity
[6] = test system: OVCAR-3; test: Growth inhibition of human OVCAR3 cells after 48 hrs by sulforhodamine B assay; type: functional, cell-based; conditions: OVCAR-3, 48 h
[7] = test system: OVCAR-8; test: Growth inhibition of human OVCAR8 cells after 48 hrs by sulforhodamine B assay; type: functional; conditions: OVCAR-8, 48 h
[8] = test system: CAKI-1; test: Growth inhibition of human CAKI-1 cells after 48 hrs by sulforhodamine B assay; type: functional; conditions: CAKI-1, 48 h
[9] = test system: MOLT-4; test: Growth inhibition of human MOLT4 cells assessed as cell growth at 10 uM after 48 hrs by sulforhodamine B assay; type: functional; conditions: MOLT-4, 48 h, read-out: Activity
[10] = test system: SW-620; test: Growth inhibition of human SW620 cells after 48 hrs by sulforhodamine B assay; type: functional; conditions: SW-620, 48 h
[11] = test system: UACC-62; test: Growth inhibition of human UACC62 cells assessed as cell growth at 10 uM after 48 hrs by sulforhodamine B assay; type: functional; conditions: UACC-62, 48 h, read-out: Activity
[12] = test system: SK-OV-3; test: Growth inhibition of human SKOV3 cells after 48 hrs by sulforhodamine B assay; type: functional; conditions: SK-OV-3, 48 h
[13] = test system: NCI-H226; test: Growth inhibition of human NCI-H226 cells assessed as cell growth at 10 uM after 48 hrs by sulforhodamine B assay; type: functional; conditions: NCI-H226, 48 h, read-out: Activity
[14] = test system: UACC-257; test: Growth inhibition of human UACC257 cells assessed as cell growth at 10 uM after 48 hrs by sulforhodamine B assay; type: functional; conditions: UACC-257, 48 h, read-out: Activity
[15] = test system: OVCAR-5; test: Growth inhibition of human OVCAR5 cells assessed as cell growth at 10 uM after 48 hrs by sulforhodamine B assay; type: functional; conditions: OVCAR-5, 48 h, read-out: Activity
[16] = test system: HOP-92; test: Growth inhibition of human HOP92 cells after 48 hrs by sulforhodamine B assay; type: functional, cell-based; conditions: HOP-92, 48 h
[17] = test system: 786-0; test: Growth inhibition of human 786-0 cells after 48 hrs by sulforhodamine B assay; type: functional; conditions: 786-0, 48 h
[18] = test system: CCRF-CEM; test: Growth inhibition of human CCRF-CEM cells after 48 hrs by sulforhodamine B assay; type: functional
[19] = test system: SK-MEL-5; test: Growth inhibition of human SK-MEL-5 cells assessed as cell growth at 10 uM after 48 hrs by sulforhodamine B assay; type: functional; conditions: SK-MEL-5, 48 h, read-out: Activity
[20] = test system: NCI-H522; test: Growth inhibition of human NCI-H522 cells after 48 hrs by sulforhodamine B assay; type: functional; conditions: NCI-H522, 48 h
[21] = test system: RPMI-8226; test: Growth inhibition of human RPMI8226 cells assessed as cell growth at 10 uM after 48 hrs by sulforhodamine B assay; type: functional; conditions: RPMI-8226, 48 h, read-out: Activity
[22] = test system: SN12C; test: Growth inhibition of human SN12C cells assessed as cell growth at 10 uM after 48 hrs by sulforhodamine B assay; type: functional; conditions: read-out: Activity
[23] = test system: HL-60(TB); test: Growth inhibition of human HL-60(TB) cells after 48 hrs by sulforhodamine B assay; type: functional; conditions: HL-60, 48 h
[24] = test system: MDA-MB-468; test: Growth inhibition of human MDA-MB-468 cells assessed as cell growth at 10 uM after 48 hrs by sulforhodamine B assay; type: functional; conditions: MDA-MB-468, 48 h, read-out: Activity
[25] = test system: K562; test: Growth inhibition of human K562 cells assessed as cell growth at 10 uM after 48 hrs by sulforhodamine B assay; type: functional; conditions: K562, 48 h, read-out: Activity
[26] = test system: OVCAR-4; test: Growth inhibition of human OVCAR4 cells after 48 hrs by sulforhodamine B assay; type: functional; conditions: OVCAR-4, 48 h
[27] = test system: TK-10; test: Growth inhibition of human TK10 cells after 48 hrs by sulforhodamine B assay; type: functional; conditions: TK-10, 48 h
[28] = test system: SF-539; test: Growth inhibition of human SF539 cells assessed as cell growth at 10 uM after 48 hrs by sulforhodamine B assay; type: functional; conditions: SF-539, 48 h, read-out: Activity
[29] = test system: T47D; test: Growth inhibition of human T47D cells assessed as cell growth at 10 uM after 48 hrs by sulforhodamine B assay; type: functional; conditions: read-out: Activity
[30] = test system: IGROV-1; test: Growth inhibition of human IGROV1 cells assessed as cell growth at 10 uM after 48 hrs by sulforhodamine B assay; type: functional; conditions: IGROV-1, 48 h, read-out: Activity
[31] = test system: SK-MEL-5; test: Growth inhibition of human SK-MEL-5 cells after 48 hrs by sulforhodamine B assay; type: functional; conditions: SK-MEL-5, 48 h
[32] = test system: OVCAR-8; test: Growth inhibition of human OVCAR8 cells assessed as cell growth at 10 uM after 48 hrs by sulforhodamine B assay; type: functional; conditions: OVCAR-8, 48 h, read-out: Activity
[33] = test system: RPMI-8226; test: Growth inhibition of human RPMI8226 cells after 48 hrs by sulforhodamine B assay; type: functional, cell-based; conditions: RPMI-8226, 48 h
[34] = read-out: LC50 (the source's name)

`COc1cc(-c2nn(-c3cccc(NC(=O)Nc4cc(C(F)(F)F)cc(C(F)(F)F)c4)c3)cc2-c2ccncc2)ccc1Cl` gave a growth at 10 µM [1] of -10.7%, a growth at 10 µM [2] of -29.2% and a GI50 [3] of 307 nM. The IC50 [3] was 310 nM, the TGI [3] was 1540 nM and the CC50 [3, 34] was 24300 nM. The growth at 10 µM [4] was -49.7%, the growth at 10 µM [5] was -68.1% and the GI50 [6] was 411 nM. It also gave an IC50 [6] of 410 nM, a TGI [6] of 1230 nM and a CC50 [6, 34] of 3390 nM. For the same compound, the GI50 [7] was 524 nM, the TGI [7] was 3980 nM and the CC50 [7, 34] was over 50000 nM. It also gave a GI50 [8] of 993 nM, a TGI [8] of 3140 nM and a CC50 [8, 34] of 49300 nM. For the same compound, the growth at 10 µM [9] was -24.5%, the GI50 [10] was 715 nM and the TGI [10] was 1860 nM. It also gave a CC50 [10, 34] of 4870 nM, a growth at 10 µM [11] of -55.9% and a GI50 [12] of 1090 nM. It also gave a TGI [12] of 2570 nM, a CC50 [12, 34] of 15400 nM and a growth at 10 µM [13] of 8.68%. The growth at 10 µM [14] was -45.1%, the growth at 10 µM [15] was 16.3% and the GI50 [16] was 144 nM. For the same compound, the IC50 [16] was 140 nM, the LC50 [16] was 4720 nM and the TGI [16] was 1150 nM. For the same compound, the GI50 [17] was 950 nM, the TGI [17] was 2020 nM and the CC50 [17, 34] was 4310 nM. For the same compound, the GI50 [18] was 498 nM, the LC50 [18] was over 50000 nM and the TGI [18] was 2790 nM. It also gave a growth at 10 µM [19] of -96.1%, a GI50 [20] of 623 nM and an LC50 (concentration killing 50% of cells) [20] of 6560 nM. The TGI [20] was 1800 nM, the growth at 10 µM [21] was -11.7% and the growth at 10 µM [22] was -8.08%. For the same compound, the GI50 [23] was 1180 nM, the TGI [23] was over 50000 nM and the CC50 [23, 34] was over 50000 nM. The growth at 10 µM [24] was -25.4%, the growth at 10 µM [25] was -10.7% and the GI50 [26] was 1120 nM. For the same compound, the LC50 (concentration killing 50% of cells) [26] was over 50000 nM, the TGI [26] was 9640 nM and the GI50 [27] was 894 nM. For the same compound, the TGI [27] was 2480 nM, the CC50 [27, 34] was 10100 nM and the growth at 10 µM [28] was -53.5%. For the same compound, the growth at 10 µM [29] was 4.45%, the growth at 10 µM [30] was 19.9% and the GI50 [31] was 694 nM. It also gave an LC50 (concentration killing 50% of cells) [31] of 2670 nM, a TGI [31] of 1360 nM and a growth at 10 µM [32] of -12.7%. It also gave a GI50 [33] of 307 nM, an IC50 [33] of 310 nM and a TGI [33] of over 50000 nM. For the same compound, the CC50 [33, 34] was over 50000 nM.
